# Reference: BindingDB's records for patent US9908886 (Agency For Science, Technology and Research, 2018)
# pIC50: −log10 of the molar value.
# Columns and labels:
# [1] = target: MAP kinase-interacting serine/threonine-protein kinase 1 (Homo sapiens, UniProt Q9BUB5); assay: In Vitro Kinase Assay
# Procedure: (§1) MNK1 and MNK2 inhibitor activity was determined using recombinant kinase domains expressed in E. coli. MNK1 and MNK2 were expressed as GST fusion proteins and the GST tag was removed using PreScission protease. After concentration to 10-15 mg/ml the proteins were flash frozen in liquid nitrogen and stored at −80° C. […] This reaction mixture was then used immediately for the activation of the MNKs. The activation of the MNK1 was performed by incubating 5.0 μM of MNK1 with 0.3 μM of activated ERK2 and 500 μM ATP at 30° C. for 6 hours. The activation of MNK2 was performed by incubating 50 μM of MNK2 with 3.0 μM of activated ERK2 and 500 μM ATP at 30° C. for 2 hours. The activated MNKs were stored at −20° C. until required for assay.
# [2] = target: MAP kinase-interacting serine/threonine-protein kinase 2 (Homo sapiens, UniProt Q9HBH9); assay: In Vitro Kinase Assay
# Procedure: as §1
# Chain of MAP kinase-interacting serine/threonine-protein kinase 2 (Q9HBH9 whole entry): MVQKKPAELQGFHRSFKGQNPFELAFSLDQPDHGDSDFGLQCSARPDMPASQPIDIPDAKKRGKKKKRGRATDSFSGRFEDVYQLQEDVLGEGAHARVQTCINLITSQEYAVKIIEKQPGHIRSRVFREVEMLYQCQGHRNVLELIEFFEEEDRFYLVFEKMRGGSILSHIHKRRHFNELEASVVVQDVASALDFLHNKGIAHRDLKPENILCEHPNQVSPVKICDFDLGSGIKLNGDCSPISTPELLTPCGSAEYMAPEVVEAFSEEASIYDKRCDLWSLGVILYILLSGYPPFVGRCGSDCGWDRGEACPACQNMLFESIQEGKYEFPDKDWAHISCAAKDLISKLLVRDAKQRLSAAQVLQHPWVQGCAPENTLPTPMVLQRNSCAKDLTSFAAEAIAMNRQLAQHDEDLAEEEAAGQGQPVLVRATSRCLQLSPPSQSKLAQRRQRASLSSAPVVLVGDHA
# Chain of MAP kinase-interacting serine/threonine-protein kinase 1 (Q9BUB5 whole entry, the tested form may be a part): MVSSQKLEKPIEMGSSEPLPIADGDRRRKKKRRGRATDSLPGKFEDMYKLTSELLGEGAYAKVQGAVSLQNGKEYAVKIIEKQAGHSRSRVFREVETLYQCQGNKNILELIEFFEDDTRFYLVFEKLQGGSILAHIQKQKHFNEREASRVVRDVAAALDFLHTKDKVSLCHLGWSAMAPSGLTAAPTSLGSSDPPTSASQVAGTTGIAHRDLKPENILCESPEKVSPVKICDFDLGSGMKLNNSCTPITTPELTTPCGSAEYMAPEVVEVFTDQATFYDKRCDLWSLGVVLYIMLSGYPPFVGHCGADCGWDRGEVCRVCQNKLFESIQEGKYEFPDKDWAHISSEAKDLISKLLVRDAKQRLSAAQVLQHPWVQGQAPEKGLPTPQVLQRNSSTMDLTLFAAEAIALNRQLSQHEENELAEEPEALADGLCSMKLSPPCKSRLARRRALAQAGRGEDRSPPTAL
structure (smiles),measurement,setting,value
"CN1CCN(C(=O)c2ccc(-c3ccc4ncc(-c5ccc(C#N)cc5)n4n3)cc2)CC1 [US9908886, Example 54]",pIC50,[1],> 7.00
same,pIC50,[2],> 7.00
